pEC50: −log10 of the molar value. Like-named read-outs stand apart in the source and are kept apart here. Non-standard residues stand in square brackets, D forms with d. Residues, ends and D or L forms follow the SMILES beside them. dNMe2Nal = CN[C@H](Cc1ccc2ccccc2c1)C(=O)O; d2Nal = N[C@H](Cc1ccc2ccccc2c1)C(=O)O; NMeF = CN[C@@H](Cc1ccccc1)C(=O)O; Inp = O=C(O)C1CCNCC1; Ava = NCCCCC(=O)O
How the values were obtained:
rat pituitary cells = rat pituitary cells (Rattus norvegicus, UniProt O08725); details: GH release, 15 min incubation
rat pituitary cells, sequence (O08725 whole entry, the tested form may be a part): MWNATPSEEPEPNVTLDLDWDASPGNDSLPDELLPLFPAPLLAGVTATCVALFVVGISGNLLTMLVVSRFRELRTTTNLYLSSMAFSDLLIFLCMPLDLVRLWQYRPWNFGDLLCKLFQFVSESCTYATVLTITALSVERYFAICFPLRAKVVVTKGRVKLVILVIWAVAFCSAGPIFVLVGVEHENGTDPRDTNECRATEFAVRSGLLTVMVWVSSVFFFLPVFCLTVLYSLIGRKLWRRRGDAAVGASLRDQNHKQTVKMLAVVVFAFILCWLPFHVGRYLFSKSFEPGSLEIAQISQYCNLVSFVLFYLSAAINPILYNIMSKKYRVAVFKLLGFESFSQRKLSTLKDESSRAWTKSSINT
Procedure: Pituitaries from ten rats were removed, the posterior pituitary discarded and the anterior pituitary placed in Hanks' Balanced Salt Solution (HBSS: without calcium chloride, w/o magnesium chloride, w/o magnesium sulfate; Gibco) containing 20 mM HEPES (Gibco) and 100 U/ml penicillin streptomycin (PS: JRH Biosciences). Under sterile conditions, pituitaries were rinsed twice then minced into small fragments with a razor blade. […] After the incubation, fragments were triturated to yield small clumps and single cells. The cells were centrifuged 1000× g for 5 min, resuspended, counted and plated at a final cell concentration of 100,000 cells/ml. Incubation media was DME low glucose media w/NaHCO3 (Gibco) containing 20 mM hepes, 100 U/ml PS and 10% FBS (Hyclone A-111-L). Cells were plated at 0.5 ml per well in 48 well plates (Falcon) and incubated at 37° C. in 5% C02 for three days. For challenges to determine release of other pituitary hormones cells were plated at 200,000 cells per ml with 2 ml per well of a Swell plate (Corning). Challenge: A (inip)bbFK-NH2 stock (or other GHRP) concentration of 1 mM was made in DMSO and diluted with warmed media approximately 30 min prior to use. The highest concentration of DMSO in media was 0.1%. Stock solutions (1 mM) of rat GHRH, somatostatin (Sigma) and GHRP antagonist HwkWfK were made fresh in media and diluted appropriately. The media used in all challenges and washing steps was DME low glucose with 20 mM Hepes, 100 U/ml PS, 10% FBS. Media was warmed to 37° C. and gassed by placing it into the incubator prior to challenge. On day three, the media was discarded and fresh media (approximately 1 ml) added for the first of three washes. After the last wash, the plate was placed back in the incubator for a 15 min pre-incubation. Then cells were washed 2× (with warmed and gassed media) and fresh 0.5 ml media were added for the second 15 min. pre-incubation. After the second pre-incubation cells were washed 2× as above and 0.5 ml of control and test solutions were added for a final 15 min incubation. After this incubation, the media were removed for subsequent GH ELISA. GH ELISA: A two-site ELISA was used to determine rat GH concentration in the media. […] After blocking and washing, standard (rat GH reference preparation: Parlow) and challenge media is diluted 1:20 prior to GH assay were added for a 1 hr room temperature incubation. STATISTICS: The mean for each group was determined and analyzed by one-way analysis of variance with a post-hoc Student-Newman-Keuls. Significance is defined as P<0.05. The EC50 was calculated using a 4-parameter curve-fit program (Kaleidagraph). Three to four independent EC50s were used to derive the mean and SEM. RIA of pituitary hormones: LH, FSH, TSH, and Prolactin were determined with commercially available kits from Amersham, and ACTH levels were determined by a RIA kit from ICN. CALCIUM FLUX EXPERIMENT: Pituitary cells were plated on fibronectin (Collaborative Research) coated two-chambered slide wells (Nunc). After four days in monolayer culture cells were rinsed three times with HBSS (Gibco) in 1% BSA and 15 mM HEPES and then incubated for 30 min at 37° C. with 5 μM Indo-1 AM (Molecular Probes, Eugene) in HBSS also containing 1% pluronic F127 (Molecular Probes). The cells were rinsed once and fresh media added for RT incubation. […] C^++ flux was imaged with a Meridian ACAS 570 using stage scanning at 21 second intervals.

growth hormone secretion = assay: GHRP induced growth hormone secretion, intravenous administration (Rat IV); assay type: in vivo; details: serum GH 10 min after injection; for RAT IV ED50: iv injection
Procedure: Immature weanling female Sprague Dawley rats were purchased from Charles River Labs (Portage, […].) and group housed with water and food available ad libitum. When the rats were 24-30 days old (weighing 50-90 g) they were anesthetized with pentobarbitone (4 mg in 0.5 ml, approximately 60 mg/kg) given by intraperitoneal injection. The rats were then placed briefly on a heated pad, to distend their tail veins, and given an intravenous tail vein injection of the peptides 20 minutes after receiving the anesthetic. The intravenous injection was of 0.1 ml using a 1 ml syringe. The injections contained graded doses of peptides or the vehicle (vehicle for all peptides given intravenously was a buffer of 20 mM sodium acetate, 45 g/l mannitol, pH 5.0). Ten minutes after the intravenous injection blood was taken by cardiac puncture, using a 3 ml syringe, and the rats were then sacrificed.
The blood was then clotted on ice, centrifuged, serum decanted and frozen for subsequent analysis using the rat GH ELISA described elsewhere in the application. For the rat GH ELISA the serum was diluted 1:50 or 1:250, depending on the expected serum GH concentrations achieved, and assayed in duplicate.

[1] = read-out: PIT Cell EC50, Table III, formula IV compounds
[2] = read-out: PIT Cell EC50, Table IV, formula III compounds
[3] = read-out: PIT Cell EC50, Table V, formula II compounds

| SMILES | pEC50 (rat pituitary cells; [1]) | RAT IV ED50 (growth hormone secretion; Table III) | pEC50 (rat pituitary cells; [2]) | RAT IV ED50 (growth hormone secretion; Table IV) | other results |
| --- | --- | --- | --- | --- | --- |
| C[C@@H](N)C(=O)N[C@H](Cc1ccc2ccccc2c1)C(=O)N[C@H](Cc1ccc2ccccc2c1)C(=O)N[C@@H](Cc1ccccc1)C(=O)N[C@@H](CCCCN)C(N)=O [a b b F K amide] (H-[dA][d2Nal][d2Nal]FK-NH2) | 8.46 | 10 µg |  |  |  |
| COC(=O)[C@H](Cc1ccccc1)NC(=O)[C@@H](Cc1ccc2ccccc2c1)NC(=O)[C@@H](Cc1ccc2ccccc2c1)N(C)C(=O)C1CCNCC1 [(inip) nmb b F Me ester] (H-[Inp][dNMe2Nal][d2Nal]F-OMe) |  |  | 8.85 | 10 µg |  |
| C[C@H](NC(=O)[C@@H](Cc1ccc2ccccc2c1)NC(=O)CCCCN)C(=O)N[C@@H](Cc1c[nH]c2ccccc12)C(=O)N[C@H](Cc1ccccc1)C(=O)N[C@@H](CCCCN)C(N)=O [(Ava) b A W f K amide, reference compound] (H-[Ava][d2Nal]AW[dF]K-NH2) |  |  |  |  | pEC50 (rat pituitary cells; read-out: “Pit” Cell EC50, Table II, prior art compounds): 9.70; Rat IV ED50 (growth hormone secretion; Table II, iv tail vein injection, anesthetized weanling female rats): 1.5 µg |
| NC(=O)CCN(CCc1ccccc1)C(=O)[C@@H](Cc1ccc2ccccc2c1)NC(=O)[C@@H](Cc1ccc2ccccc2c1)NC(=O)C1CCNCC1 [(inip) b b feb amide] |  |  | 9.52 | 0.67 µg |  |
| NC(=O)[C@@H](Cc1ccccc1)NC(=O)[C@@H](Cc1ccc2ccccc2c1)NC(=O)[C@@H](Cc1ccc2ccccc2c1)NC(=O)C1CCNCC1 [(inip) b b f amide] (H-[Inp][d2Nal][d2Nal][dF]-NH2) |  |  | 9.22 | 20 µg |  |
| CN(C(=O)[C@@H](Cc1ccc2ccccc2c1)NC(=O)[C@@H](Cc1ccc2ccccc2c1)NC(=O)C1CCNCC1)[C@@H](Cc1ccccc1)C(N)=O [(inip) bb nmF amide] (H-[Inp][d2Nal][d2Nal][NMeF]-NH2) |  |  | 9.22 | 5 µg |  |
| NCCCCC(=O)N[C@H](Cc1ccc2ccccc2c1)C(=O)N[C@H](Cc1ccc2ccccc2c1)C(=O)N[C@@H](Cc1ccccc1)C(=O)N1CCC[C@H]1C(N)=O [(Ava) b b F P amide] (H-[Ava][d2Nal][d2Nal]FP-NH2) | 7.29 | 50 µg |  |  |  |
| O=C(N[C@H](Cc1ccc2ccccc2c1)C(=O)NCCc1ccc2ccccc2c1)C1CCNCC1 [(inip) b npe, (inip)-DβNal-[N-1-{2-(2-naphthyl)ethyl}] amide] |  |  |  |  | pEC50 (rat pituitary cells; [3]): 7.96; RAT IV ED50 (growth hormone secretion; Table V): 500 µg |
| O=C(N[C@H](Cc1ccc2ccccc2c1)C(=O)N[C@H](Cc1ccc2ccccc2c1)C(=O)NC1CCNCC1)C1CCNCC1 [(inip) b b api] |  |  | 8.57 | 25 µg |  |
| COC(=O)[C@@H](Cc1ccc2ccccc2c1)NC(=O)[C@@H](Cc1ccc2ccccc2c1)NC(=O)C1CCNCC1 [(imp) b b Me ester] (H-[Inp]-[d2Nal]-[d2Nal]-OMe) |  |  |  |  | pEC50 (rat pituitary cells; [3]): 8.30; RAT IV ED50 (growth hormone secretion; Table V): 100 µg |
| NCCCC[C@H](NC(=O)[C@H](Cc1ccccc1)NC(=O)[C@@H](Cc1c[nH]c2ccccc12)NC(=O)[C@@H](Cc1ccc2ccccc2c1)NC(=O)[C@@H](N)Cc1c[nH]cn1)C(N)=O [H b w F K amide] (H-H[d2Nal][dW]FK-NH2) | 8.17 | 4.2 µg |  |  |  |
| NCCCCC(=O)N[C@H](Cc1c[nH]c2ccccc12)C(=O)N[C@H](Cc1c[nH]c2ccccc12)C(=O)N[C@@H](Cc1ccccc1)C(=O)N[C@@H](CCCCN)C(N)=O [(Ava) w w F K amide] (H-[Ava][dW][dW]FK-NH2) | 7.89 | 5 µg |  |  |  |
| NCCCC[C@H](NC(=O)[C@H](Cc1ccccc1)NC(=O)[C@@H](Cc1ccc2ccccc2c1)NC(=O)[C@@H](Cc1ccc2ccccc2c1)NC(=O)[C@@H](N)Cc1c[nH]cn1)C(N)=O [H b b F K amide] (H-H[d2Nal][d2Nal]FK-NH2) | 8.62 | 15.4 µg |  |  |  |
| C[C@@H](N)C(=O)N[C@H](Cc1c[nH]c2ccccc12)C(=O)N[C@H](Cc1c[nH]c2ccccc12)C(=O)N[C@@H](Cc1ccccc1)C(=O)N[C@@H](CCCCN)C(N)=O [a w w F K amide] (H-[dA][dW][dW]FK-NH2) | 8.39 | 1.47 µg |  |  |  |

— patent US7094869B2, “Low molecular weight peptidomimetic growth hormone secretagogues” (Genentech, Inc., priority 1994, dated 2006)
